Legend:
Type in all cases: cell-based
IL-6 = assay: Spontaneous IL-6 release from synovial cells of RA patients; details: Homo sapiens, Synovial cell, freshly isolated synovial cells from RA patients, 16 hours
Method: (§1) Cytokine production in synovial cells obtained from rheumatoid arthritis patients undergoing knee replacement surgery, was measured as per the method described in reference, Lancet, 1989, 29, 244-247, the disclosure of which is incorporated herein by reference for the teaching of the assay. The synovial membrane tissue was digested by incubating at 37° C. for 3 hours in an atmosphere of 5% CO2, in Roswell Park Memorial Institute (RPMI) medium containing penicillin-G (100 U/mL), streptomycin (100 μg/mL), amphotericin B (50 ng/mL) (GIBCO), 1.33 mg/mL collagenase Type I (Worthington Biochemical Corporation, New Jersey, USA), 0.5 μg/mL DNAse Type I (SIGMA) and 8.33 U/mL heparin (Biological E. Limited, India). The digested tissue was then filtered through a membrane (mesh size 70 micron) (SIGMA), the cells were washed 3 times and suspended in complete medium (RPMI supplemented with 5% FCS and 5% human serum). The cell concentration was adjusted to 1×10^6 cells/mL. The viability as determined by trypan blue dye exclusion was uniform Ly≧98%. The cell suspension (100 μL) was added to the wells of a 96-well culture plate. […] The final concentration of DMSO was adjusted to 0.5%. The vehicle (0.5° A) DMSO) was used as control. SB 203580 (20 μM) was used as a standard. The plates were incubated for 16 hours at 37° C. in 5% CO2 atmosphere. […]

E-selectin = assay: TNF-α induced cell surface expression of E-selectin on HUVECs; details: Homo sapiens, HUVEC; TNF-α (1 ng/mL) stimulated HUVECs, 6 hours, n=2
Method: The assay was designed as in reference, Transplantation, 1997, 63(5), 759-764, the disclosure of which is incorporated herein by reference for the teaching of the assay.
Human umbilical vein endothelial cells (HUVECs) were obtained from Cascade Biologics (Oregon-USA). Cells were cultured in M-200 medium (Cascade Biologics) supplemented with low serum growth supplements (LSGS) (Cascade Biologics), penicillin-G (100 U/mL), streptomycin (100 μg/mL) and amphotericin B (50 ng/mL) (GIBCO). […] After TNF-α stimulation (1 ng/mL) (R&D Systems (Minneapolis, Minn.)) for 4 hours at 37° C. in an atmosphere of 5% CO2, supernatants were harvested and assayed for the expression of ICAM-1 (intercellular cell adhesion molecules), whereas the expressions of VCAM-1 (vascular cell adhesion molecules) and E-selectin were evaluated after 6 hours of stimulation. […] To quantitatively measure the amount of cell surface expressions of ICAM-1, VCAM-1 and E-selectin, ELISA assay was performed using anti-ICAM-1 (clone BBIG-I1), anti-VCAM-1 (clone BBIG-V1), anti-E-selectin (clone BBIG-E4) antibodies, isotype control mouse IgG1 (clone 11711.11) and the secondary antibody (anti-mouse IgG-HRP antibody) which were procured from R&D Systems (Minneapolis, Minn., USA). […]

TNF-α [1] = assay: LPS-induced TNF-α release from hPBMCs (ELISA); details: Homo sapiens
Method: Cytokine production by lipopolysaccharides (LPS) in hPBMCs (human peripheral blood mononuclear cells) was measured as in reference, Physiol. Res. 2003, 52, 593-598, the disclosure of which is incorporated by reference for the teaching of the assay. Blood was collected from healthy donors into Potassium EDTA vacutainer tubes (BID vacutainer). The PBMC were isolated using gradient centrifugation in Histopaque-1077 solution (Sigma). Isolated PBMC were suspended in RPMI 1640 (Rosewell Park Memorial Institute) culture medium (Sigma-Aldrich Fine Chemicals, USA) containing 10% fetal bovine serum (FBS) (JRH, USA), 100 U/mL penicillin (Sigma Chemical Co. St Louis, Mo., USA) and 100 μg/mL streptomycin (Sigma Chemical Co. St Louis, Mo.). The cell concentration was adjusted to 1×10^6 cells/mL. The viability as determined by trypan blue dye exclusion was uniform Ly≧98%. The cell suspension (100 μL) was added to the wells of a 96-well culture plate. Following cell plating, 79 μL of the culture medium and 1 μL of various concentrations of test compounds (compounds of formula 1) (final concentration 0.001, 0.003, 0.005, 0.01, 0.025, 0.03, 0.05, 0.1, 0.25, 0.3 and 1 μM) dissolved in DMSO (dimethyl sulfoxide, Sigma, Mo., USA) were added to the cells. The final concentration of DMSO was adjusted to 0.5%. The vehicle (0.5% DMSO) was used as control. […] The plates were incubated for 30 minutes at 37° C. in an atmosphere of 5% CO2. Finally, 20 μL (10 μg/mL) per well of LPS, (Escherchia coli 0127:B8, Sigma Chemical Co., St. Louis, Mo.) was added to the wells of the incubated plates, for a final concentration of 1 μg/mL. The plates were incubated at 37° C. for 5 hours in an atmosphere of 5% CO2. […] Supernatants were harvested and assayed for TNF-α, IL-1β, IL-6 and IL-8 by ELISA as described by the manufacturer. (OptiEIA ELISA sets, BD Biosciences, Pharmingen). The 50% inhibitory concentration (IC50) values were calculated by a nonlinear regression method using GraphPad software (Prism 3.03).

TNF-α [2] = assay: Spontaneous TNF-α release from synovial cells of RA patients; details: Homo sapiens, Synovial cell, freshly isolated synovial cells from RA patients, 16 hours
Method: as §1

- IC50 (IL-6): 10000 nM
- IC50 (E-selectin): 650 nM
- IC50 (TNF-α [1]; LPS-induced release from hPBMCs (Table 1A), read-out: IC50 TNF-α): 1000 nM
- IC50 (TNF-α [1]; LPS-stimulated hPBMCs, 5 hours, read-out: Activity (TNF-α) IC50): 1000 nM
- IC50 (TNF-α [2]): 20000 nM
SMILES: CN1CC[C@@H](c2c(O)cc(O)c3c(=O)cc(-c4ccc(C(F)(F)F)cc4Cl)oc23)[C@@H]1CO.Cl [Compound of example 3, (+)-trans-2-(2-Chloro-4-trifluoromethyl-phenyl)-5,7-dihydroxy-8-(2-hydroxymethyl-1-methyl-pyrrolidin-3-yl)-chromen-4-one hydrochloride]

— patent US8906953B2, “Pyrrolidine substitute flavones for the treatment of inflammatory disorders” (Piramal Enterprises Limited, priority 2010, dated 2014)
